Columns and labels:
SUDHL-4 = experiment: Cell cycle profile by FACS (propidium iodide DNA content); assay type: cell-based; details: SUDHL-4, 48 hr treatment
Description: Lymphoma cell line cells were treated with the KSP inhibitors of the invention and analyzed by FACs analysis. Approximately 2×10^5 cells were harvested, cell pellets were washed with cold PBS twice and re-suspended in 500 μL cold PBS. Cells were fixed by adding 8 mL cold 80% ethanol while vortexing slowly. After 15 minutes of incubation fixed cells were washed twice with PBS and cell pellets were re-suspended in 1 mL of PI/RNASE staining buffer (BD Pharmingen™ catalog #550825) and incubated for 15 minutes at 37° C. protected from light. Propidium iodide (PI) is a fluorescent vital dye that stains both DNA and RNA. Therefore the RNA must be removed by digestion with ribonuclease (RNase). Stained cells were passed through a cell strainer into a FACS tube to reduce the number of cell aggregates (BD Falcon #352235) prior to FACS analysis. The DNA content of the fixed and stained cells was analyzed by the BD FACSCalibur flow cytometer using the CellQuest software.
Following mitotic arrest, cells have several options including coming out of arrest and dividing normally, undergoing apoptosis directly, or exiting mitosis without cytokinesis (a phenomenon called mitotic slippage). If cells undergo mitotic slippage, they can enter a pseudo-G1 and then either continue to cycle, senesce, or undergo apoptosis. […]

MV4; 11 = experiment: LDH release assay; assay type: cell-based; details: Homo sapiens; MV4;11, 48 h
Text: Identification of tumor types that are the most sensitive to the KSP inhibitors of the present invention can be accomplished using an unbiased approach that uses several cell-based assays. The assays chosen were as follows: • CellTiter-Glo®. This is an assay designed to measure ATP concentration in a cell culture, and can be correlated to cell number. Briefly CellTiter-Glo® (Promega Corporation) is a homogeneous method using the single CellTiter-Glo® reagent to detect ATP wherein ATP in the assay drives the activity of a thermostable luciferase to create a luminescent signal which can then be measured and correlated with the number of viable cells. Briefly, for adherent cells, 1,000 to 5,000 cells/well were plated in 96-well plates (100 μl/well) and let to adhere for 24 hours before being treated with drug. For non-adherent cells, 1,000 to 10,000 cells/well were plated in 96-well plates (100 μl/well) and immediately treated with drug. Drug dilutions were prepared in DMSO at 1000 times the final concentration. These dilutions were then diluted 1/100 in growth media before being added to the cells (11 μl/well) to achieve the desired final concentration. After 48 h in a 37° C. tissue culture incubator, the plates were processed for the CellTiter-Glo®assay according to the manufacturer's instructions. Protocol for a 72 hour cell proliferation assay: The 72 hour assay was performed the same way as the 48 hour assay except for the following modifications: For adherent cells, 500 to 5,000 cells/well were plated in 96-well plates (90 μl/well cell growth media) and left to adhere for 24 hours before being treated with drug. For non-adherent cells, 1,000 to 10,000 cells/well were plated in 96-well plates (90 μl/well cell growth media) and immediately treated with drug. Data values presented represent the concentration of test compound required for a 50% reduction in growth. • LDH release. […] The enzymatic reaction is coupled to a chemical reaction that uses a tetrazolium salt to form a formazan that is red and can be detected by its absorbance at 490 nm. […]

[1] = KMS-11-luc disseminated disease model, host response; assay type: in vivo, mouse; details: q4d × 3, i.v.
Description: Experiments were performed using immunodeficient SCID-Beige female mice approximately 7-8 weeks old (Charles River Laboratories, Wilmington, Mass.). […] Routine animal care and assurance of welfare were as described above. […] Doses were adjusted to each animal's body weight. […] Approximately 10 minutes prior to imaging, mice were injected i.p. with 150 mg/kg luciferin (Xenogen Corporation, Alameda, Calif.), followed by anesthetization with isoflurane. Photon emission was measured using a charge coupled device camera in the IVIS imaging system (Xenogen Corporation). Briefly, a gray-scale image of the mice was captured, followed by an overlay of a bioluminescence map representing the spatial distribution of photons detected from cleaved luciferin in the cancer cells expressing luciferase. Signal intensity was quantified using a customized version of the IGOR Pro version 4.09A Software (WaveMetrics, Inc., Lake Oswego, Oreg.) called Living Image version 2.50.2 (Xenogen). The sum of all detected photon counts from the right+left legs were determined. Bioluminescence of cancer cells in the animals was measured by imaging on designated days until the first mice developed hind limb paralysis due to disease burden, the main end point for when to humanely euthanize mice. The day of euthanasia for each mouse was recorded, and the remaining percentage of mice surviving was plotted over time (Kaplan-Meier survival analysis). P values were calculated using the log-rank test (GraphPad Prism 4.0 software) to assess differences between treated and control groups (p<0.05 was considered significant). […] Data analysis was as described above.

[2] = In vivo pharmacokinetic parameters (clearance, half-life, AUC)

**Q.** What does the source list for CC(C)(C)[C@H](c1nc(-c2cc(F)ccc2F)cn1Cc1ccccc1)N(CC[C@H](N)CF)C(=O)CO [Compound IIa]?
**A.** cell cycle profile (DNA content, FACS) (SUDHL-4): underwent apoptosis after 48 hr treatment; EC50 (MV4; 11): 0.03 nM; Max. Δ body weight (Day) ([1]; 0.25 mg/kg, D14): 2.1 ± 1.23 g; Max. Δ body weight (Day) (%) ([1]; 0.25 mg/kg, D14): 5.0 ± 2.0%; Max. Δ body weight (Day) ([1]; 0.5 mg/kg, D14): 2.5 ± 0.23 g; Max. Δ body weight (Day) (%) ([1]; 0.5 mg/kg, D14): 6.7 ± 1.1%; Max. Δ body weight (Day) ([1]; 1 mg/kg, D13): -0.74 ± 0.75 g; Max. Δ body weight (Day) (%) ([1]; 1 mg/kg, D13): −3.3 ± 4.0%; AUC [2]: 1930 ng·h/mL; half-life [2]: 1.83 h; clearance ([2]; read-out: In vivo Clearance rate): 41 mL/min/kg

— patent US8252832B2, “Kinesin inhibitors as cancer therapeutics” (Novartis AG, priority 2007, dated 2012)
